In patent publication US5843481A, “Treatment of proliferative disorders, metastasaes, and drug resistant tumors with vanadate compounds and derivatives or analogues thereof” (priority 1994, dated 1998):

Key:
[1] = tested on: proliferating chondrocytes; experiment: Viability of proliferating chondrocytes (low cell density); type: cell-based, bovine; conditions: 0-50 μM, 48 hours; FIG. 6
Description: (§1) As described in example 1, orthovanadate inhibited fos, jun and collagenase expression. If fos and jun expression are required for cellular proliferation, then orthovanadate should inhibit chondrocyte proliferation. In order to compare the effect of orthovanadate on non-proliferating and proliferating chondrocytes, chondrocytes were plated at both high cell density (2×10^6 to 4×10^6 cells/per well on a six well plate) (nonproliferating) and at a lower cell density (5×10^5 to 1×10^6 cells/per well on a six well plate) (proliferating) and then maintained for 48 hours. The cells were then incubated in media (HAMS F12) containing 0-50 μM Orthovanadate for an additional 48 hours. The cells were harvested and the number of viable cells determined.

[2] = tested on: KB8, KB8-5 and KB85-11 cells; experiment: Viability of drug resistant ovarian cancer cell lines; type: cell-based
Text: The effect of orthovanadate on three ovarian cancer cell lines, KB8, KB8-5 and KB85-11, which have increasing drug resistance, respectively, relative to the parent cell line, KB3-1 was compared. These drug resistant cell lines are not killed by several classes of chemotherapeutic agents such as colchicine, vinblastine and doxorubicin. […] The cells were harvested and the number of viable cells determined.

[3] = tested on: jun; experiment: Northern blot analysis of jun mRNA expression in chondrocytes; type: cell-based, bovine
Text: The cytokine interleukin 1 (IL 1) has been used to identify the intermediate second messengers which regulate the expression of fos and jun.
Although IL 1 stimulated superoxide production, it was not known whether IL 1 induced fos and jun expression was dependent on the production of superoxides. In order to elucidate this possibility, the effect of DPI on fos and jun mRNA levels induced by IL 1 was investigated. RNA from chondrocytes treated with IL 1 in the presence and absence of DPI were analyzed by Northern blot analysis using either fos or collagenase cDNA probes. […] Similar data has been obtained for IL 1 induced jun expression. Furthermore, inhibition of fos and jun expression by DPI was sufficient to suppress IL 1 induced and constitutive collagenase expression.
(§2) Bovine articular chondrocytes were isolated and plated as previously described (Kandel R. A. et al. Biochim. Biophys. Acta. 1053, 130-134, 1990). In order to determine the effect of orthovanadate on IL 1 and PMA (phorbol ester) induced responses, chondrocytes were incubated with orthovanadate (100 μM) for 2 hours before stimulation with IL 1 (10 ng/ml) or PMA ([…]). collagenase production was determined by incubating chondrocytes for 24 hours with IL 1 or PMA and the cell conditioned medium was assayed for collagenase activity using an ELISA procedure as described previously (Kandel et al. supra) PLA2 activity was measured by incorporating ^3 H-arachidonic acid (^3 H-AA) into the cells and then incubating the cells with medium containing 1 mg/ml BSA, either alone or in the presence of IL 1 or PMA, for 10 min. as previously described (Conquer, J. A. […], Biochim. Biophys. Acta. 1134, 1-6). The amount of ^3 H-AA liberated into the supernatant was determined. To measure PGE2 production, chondrocytes were incubated for 6 hours in Ham's F12 medium, either alone or with IL 1 or PMA. The supernatant was analyzed by RIA using an antibody specific for PGE2 (Dr. S. A. Jones, Mount Sinai Hospital, Toronto, Can.). In order to examine the expression of c-fos and c-jun, chondrocytes were incubated for 1 hour in the presence of IL-1, PMA or AA (3 μM). Chondrocytes were washed in PBS and the total RNA extracted as previously described (Cruz. et al, 1991, Biochem. J. 277, 327-330). RNA samples were run on formaldehyde agarose gels and transferred to nylon membrane for northern analysis using cDNA probes for c-fos and c-jun.

[4] = Tolerability/toxicity of orthovanadate in mice, Example 9; type: in vivo
Text: However, subcutaneous injections of up to 500 μgms orthovanadate is tolerated by the animals. Slow administration of the orthovanadate would decrease toxicity and the animals may tolerate higher doses.

[5] = Dose required to reach serum concentration highly toxic to cancer cells; design: species or system animals; conditions: in vivo
[6] = tested on: superoxides and H2O2; experiment: Levels of superoxides and H2O2 in cells (conclusion of Example 1); type: cell-based, bovine; conditions: conclusion from results
Description: as §2, with “Chondrocytes were washed in PBS and the total RNA extracted as previously described (Cruz. et al, 1991, Biochem. J. 277, 327-330). RNA samples were run on formaldehyde agarose gels and transferred to nylon membrane for northern analysis using cDNA probes for c-fos and c-jun.” left out

[7] = tested on: MDAY-D2; experiment: MDAY-D2 tumor growth in mice, Example 6A; type: in vivo
Text: In order to examine the ability of vanadyl compounds to reduce tumor formation, growth and metastases, a specific animal model which allows investigation of all of these processes in the same animal was chosen. This model involves the injection of a metastatic haematopoietic cell line, MDAY-D2, into mice subcutaneously. These cells form a tumor at the site of injection and its size can be easily determined. In addition, these cells metastasize to the liver and metastases can be detected histologically after day 17 to 19. This model provides a very sensitive and reproducible approach to investigate the effect of vanadyl compounds on tumor growth and metastases.
Using the animal model described above, the effect of subcutaneous administration of orthovanadate on tumor growth was investigated. A total of 15 mice were injected subcutaneously with 1×10^5 MDAY-D2 cells on Day 1. On Day 5, small tumors could be observed at the site of injection. Five mice were injected daily with 50 μl of water alone and 10 mice were injected daily with water containing 10 mg/ml orthovanadate. On day 14, the mice were sacrificed. The tumors were removed from all the animals, photographed, and weighed. FIG. 11 compares sizes of tumors from two untreated and two orthovanadate treated mice. […] In animals treated with water alone, four mice had tumors weighing between 1.18 and 1.68 gms.

[8] = tested on: non-proliferating chondrocytes; experiment: Viability of non-proliferating chondrocytes (high cell density); type: cell-based, bovine; conditions: 0-50 μM, 48 hours; FIG. 6
Description: as §1

With [O]=[V]([O-])([O-])[O-] [orthovanadate] the “toxicity to cells plated at low cell density (proliferating)” value [1] was “toxic”, the “effectiveness in killing drug resistant cell lines” value ([2]; 0-50 μM, 48 hours, FIG. 10) was “equally effective” and the “cell death by three days of administration” value ([2]; three days) was “most of the cells had died”. For the same compound, the “IL 1, PMA and AA induced c-jun expression” value ([3]; orthovanadate 100 μM, FIGS. 4 and 18) was “completely inhibited”, the “jun expression in response to factors such as IL 1 or arachidonic acid” value ([3]; summary statement) was “completely inhibit” and the intraperitoneal toxicity ([4]; intraperitoneal, high doses) was “toxic”. The oral toxicity ([4]; oral, 0.5 mg/ml, laboratory mice) was “gastric toxicity”, the “tolerated dose, subcutaneous” value ([4]; subcutaneous injections) was “up to 500 μgms” and the “dose required to reach serum concentrations highly toxic to cancer cells” value [5] was “at least 0.2 mg/kg”. For the same compound, the “levels of superoxides and H2O2 in cells” value [6] was “indirectly reduce”, the “tumor size (five mice)” value ([7]; 10 mg/ml s.c. daily, day 14, five of 10 mice) was “less than 0.16 gms” and the “mice without detectable tumors” value ([7]; 10 mg/ml, 50 μl s.c. daily, day 14, of 10 mice, FIG. 12) was 2 mice. The “tumor size of treated mice versus untreated” value ([7]; FIG. 11) was “either undetectable or considerably smaller” and the “toxicity to chondrocytes plated at high cell density (non-proliferating)” value [8] was “did not effect”.
